What was measured:
[1] = Oral bioavailability in animal model studies; assay type: in vivo
From the text: Because of the poor aqueous solubility of 1-(3,5-dimethoxyphenyl)-4-[(6-fluoro-2-methoxyquinoxalin-3-yl)aminocarbonyl]piperazine, production of a submicron suspension needed to be developed as a viable oral delivery option to avoid the need to administer large volumes of a 1-(3,5-dimethoxyphenyl)-4-[(6-fluoro-2-methoxyquinoxalin-3-yl)aminocarbonyl]piperazine solution to achieve the intended dosage levels.

[2] = Solubility in water; assay type: physicochemical
Method: This poor solubility in water makes it difficult to deliver the compound and related compounds of formula (1) and has limited clinical development, thus creating a need for the development of a formulation suitable for clinical use. The present invention was developed with a goal of obtaining a suitable formulation that can provide a stable suspension of the compound at a concentration of about 100 mg/mL or a dried formulation that could be either delivered orally or used to prepare a stable suspension. While the invention is described and exemplified primarily with respect to 1-(3,5-dimethoxyphenyl)-4-[(6-fluoro-2-methoxyquinoxalin-3-yl)aminocarbonyl]piperazine, it is to be understood that the invention is applicable to other compounds of formula (1).
1-(3,5-Dimethoxyphenyl)-4-[(6-fluoro-2-methoxyquinoxalin-3-yl)aminocarbonyl]piperazine has a very poor solubility in water, less than 0.1 μg/ml, and its solubility was tested in several co-solvents. […] Thus, these classical formulations are not useful in clinical use, although they could be used in some limited purpose in pre-clinical studies.
Particles were crystalline and irregularly shaped. FIG. 1 illustrates particles of 1-(3,5-Dimethoxyphenyl)-4-[(6-fluoro-2-methoxyquinoxalin-3-yl)aminocarbonyl]piperazine at 400× Magnification. […]

[3] = Particle size of unmilled API by laser diffraction; assay type: physicochemical; settings: dispersed in aqueous solution of Aerosol OT
From the text: (§1) API morphology can be characterized by optical microscopy (e.g., Olympus BX51 microscope with Clemex JS-2000 controller). Differential scanning calorimetry (e.g., Mettler-Toledo DSC 1) and thermogravimetric analysis (e.g., Mettler-Toledo TGA/DSC 1) can be used to measure the thermal characteristics of the material. Particle size measurements can be made throughout by, for example, laser diffraction (e.g. Horiba LA-950V2), by dispersing the material, either in water, when surfactant is present in the test sample or in a dilute solution of poloxamer when no other dispersant was present.
Based on chemical structure, the refractive index of 1-(3,5-dimethoxyphenyl)-4-[(6-fluoro-2-methoxyquinoxalin-3-yl)aminocarbonyl]piperazine was predicted to be 1.637. For particle size measurements, the imaginary component of the refractive index, or the i-value (a unitless factor used by the laser diffraction algorithm to account for the absorption of light by the particles) was determined to be 0.1. Unmilled 1-(3,5-Dimethoxyphenyl)-4-[(6-fluoro-2-methoxyquinoxalin-3-yl)aminocarbonyl]piperazine dispersed readily in an aqueous solution of (Aerosol OT). The median particle size (D50) measured at 13 μm.

[4] = Thermal analysis (TGA / DSC); assay type: physicochemical
From the text: as §1
Mass loss after 220° C. may be attributable to thermal degradation.
Differential scanning calorimetry (see FIG. 4) confirmed the endotherm related to the initial mass loss at 108° C.

oral bioavailability [1]: good oral bioavailability | solubility [2]: < 0.1 µg/mL | solubility in water [2]: practically insoluble | median particle size (D50) [3]: 13 μm | thermal stability ([4]; TGA and DSC data): thermally stable | no indication of decomposition until ([4]; differential scanning calorimetry): 223 °C
Structure (SMILES): COc1cc(OC)cc(N2CCN(C(=O)Nc3nc4cc(F)ccc4nc3OC)CC2)c1 [Compound A, 1-(3,5-Dimethoxyphenyl)-4-[(6-fluoro-2-methoxyquinoxalin-3-yl)aminocarbonyl]piperazine]
